From the NIST ThermoML archive (doi:10.1016/j.jct.2015.02.023) come the findings set out here.

Numbers after ± are expanded uncertainties.

A short description of this data set: activity coefficient (dimensionless); of the first substance listed, at infinite dilution; xn = mol fraction of the nth substance listed. The following applies: 101.33 kPa, Liquid, Chromatography, x1 = 0.

As for `Cc1ccccc1C` [1,2-dimethylbenzene] + CCn1cc[n+](C)c1.CO[PH](=O)[O-], the activity coefficient runs as follows: (313.15 K) 14.4 ± 1; (333.15 K) 15 ± 1; (353.15 K) 16.2 ± 1.1; (373.15 K) 18.8 ± 1.3.

In the case of `Cc1ccccc1C` [1,2-dimethylbenzene] + CO[PH](=O)[O-].Cn1cc[n+](C)c1, the activity coefficient runs as follows: (313.15 K) 19.2 ± 1.3; (323.15 K) 19.1 ± 1.3; (333.15 K) 18.6 ± 1.3; (343.15 K) 18.5 ± 1.3.

For the molecule `Cc1cccc(C)c1` [1,3-dimethylbenzene] + CCn1cc[n+](C)c1.CO[PH](=O)[O-], the activity coefficient turned out to be 18.6 ± 1.3 (313.15 K), 18.8 ± 1.3 (333.15 K), 20.4 ± 1.4 (353.15 K) and 24.9 ± 1.7 (373.15 K).

With `Cc1cccc(C)c1` [1,3-dimethylbenzene] + CO[PH](=O)[O-].Cn1cc[n+](C)c1, the activity coefficient was determined as 24.5 ± 1.7 (313.15 K), 24.4 ± 1.7 (323.15 K), 23.6 ± 1.6 (333.15 K) and 23.1 ± 1.6 (343.15 K).

As to `Cc1ccc(C)cc1` [1,4-dimethylbenzene] + CCn1cc[n+](C)c1.CO[PH](=O)[O-], the activity coefficient came out at 16.9 ± 1.2 (313.15 K), 18 ± 1.2 (333.15 K), 19.3 ± 1.3 (353.15 K) and 21.9 ± 1.5 (373.15 K).

In the case of `Cc1ccc(C)cc1` [1,4-dimethylbenzene] + CO[PH](=O)[O-].Cn1cc[n+](C)c1, the activity coefficient worked out at 23.4 ± 1.6 (313.15 K), 23.4 ± 1.6 (323.15 K), 22.7 ± 1.6 (333.15 K) and 22 ± 1.5 (343.15 K).

As to `C1COCCO1` [1,4-dioxane] + CCn1cc[n+](C)c1.CO[PH](=O)[O-], the activity coefficient by setting is: (313.15 K) 3.4 ± 0.23; (333.15 K) 3.55 ± 0.24; (353.15 K) 3.87 ± 0.26; (373.15 K) 4.33 ± 0.29.

Take `C1COCCO1` [1,4-dioxane] + CO[PH](=O)[O-].Cn1cc[n+](C)c1: the activity coefficient by setting is: (313.15 K) 3.73 ± 0.25; (323.15 K) 3.72 ± 0.25; (333.15 K) 3.69 ± 0.25; (343.15 K) 3.66 ± 0.25.

With `C#CCCCCC` [1-heptyne] + CCn1cc[n+](C)c1.CO[PH](=O)[O-], the activity coefficient reads like this: (313.15 K) 10.2 ± 0.7; (333.15 K) 11.1 ± 0.8; (353.15 K) 11.8 ± 0.8; (373.15 K) 12 ± 0.8.

For `C#CCCCCC` [1-heptyne] + CO[PH](=O)[O-].Cn1cc[n+](C)c1, the activity coefficient (313.15 K) came to 22 ± 1.5, the activity coefficient (323.15 K) came out at 23.5 ± 1.6, the activity coefficient (333.15 K) came to 23.5 ± 1.6 and the activity coefficient (343.15 K) amounted to 24.9 ± 1.7.

On to `C#CCCCC` [1-hexyne] + CCn1cc[n+](C)c1.CO[PH](=O)[O-], for which the activity coefficient came out at 6.24 ± 0.43 (313.15 K), 6.73 ± 0.46 (333.15 K), 7.14 ± 0.49 (353.15 K) and 7.56 ± 0.52 (373.15 K).

As for `C#CCCCC` [1-hexyne] + CO[PH](=O)[O-].Cn1cc[n+](C)c1, the activity coefficient (313.15 K) was 12.7 ± 0.87, the activity coefficient (323.15 K) is 13 ± 0.88, the activity coefficient (333.15 K) is 13.4 ± 0.91 and the activity coefficient (343.15 K) came out at 13.7 ± 0.93.

Consider `CCC[N+](=O)[O-]` [1-nitropropane] + CCn1cc[n+](C)c1.CO[PH](=O)[O-], for which the activity coefficient is, setting by setting: (313.15 K) 2.68 ± 0.18; (333.15 K) 2.69 ± 0.18; (353.15 K) 2.75 ± 0.19; (373.15 K) 2.8 ± 0.19.

Regarding `CCC[N+](=O)[O-]` [1-nitropropane] + CO[PH](=O)[O-].Cn1cc[n+](C)c1, the activity coefficient is, setting by setting: (313.15 K) 3.41 ± 0.23; (323.15 K) 3.35 ± 0.23; (333.15 K) 3.29 ± 0.22; (343.15 K) 3.29 ± 0.22.

On to `CC(C)CO` [2-methyl-1-propanol] + CCn1cc[n+](C)c1.CO[PH](=O)[O-], for which the activity coefficient runs as follows: (353.15 K) 0.292 ± 0.031; (373.15 K) 0.309 ± 0.031.

With `CC#N` [acetonitrile] + CCn1cc[n+](C)c1.CO[PH](=O)[O-], the activity coefficient (313.15 K) stood at 1.08 ± 0.07, the activity coefficient (333.15 K) is 1.11 ± 0.07, the activity coefficient (353.15 K) is 1.19 ± 0.08 and the activity coefficient (373.15 K) is 1.25 ± 0.08.

Regarding `CC#N` [acetonitrile] + CO[PH](=O)[O-].Cn1cc[n+](C)c1, the activity coefficient (313.15 K) was found to be 1.1 ± 0.07, the activity coefficient (323.15 K) was determined as 1.11 ± 0.07, the activity coefficient (333.15 K) is 1.12 ± 0.07 and the activity coefficient (343.15 K) stood at 1.12 ± 0.07.

On to `c1ccccc1` [benzene] + CCn1cc[n+](C)c1.CO[PH](=O)[O-], for which the activity coefficient is, setting by setting: (313.15 K) 3.44 ± 0.23; (333.15 K) 3.52 ± 0.24; (353.15 K) 3.61 ± 0.25; (373.15 K) 3.75 ± 0.26.

Consider `c1ccccc1` [benzene] + CO[PH](=O)[O-].Cn1cc[n+](C)c1, for which the activity coefficient by setting is: (313.15 K) 5.69 ± 0.39; (323.15 K) 5.58 ± 0.38; (333.15 K) 5.52 ± 0.38; (343.15 K) 5.43 ± 0.37.

As for `CCCCO` [butan-1-ol] + CCn1cc[n+](C)c1.CO[PH](=O)[O-], the activity coefficient (353.15 K) came to 0.308 ± 0.031 and the activity coefficient (373.15 K) amounted to 0.324 ± 0.032.

For `CCC(C)=O` [butanone] + CCn1cc[n+](C)c1.CO[PH](=O)[O-], the activity coefficient was determined as 3.49 ± 0.24 (313.15 K), 3 ± 0.2 (333.15 K), 2.56 ± 0.17 (353.15 K) and 2.37 ± 0.16 (373.15 K).

Consider `CCC(C)=O` [butanone] + CO[PH](=O)[O-].Cn1cc[n+](C)c1, for which the activity coefficient was found to be 5.52 ± 0.38 (313.15 K), 5.16 ± 0.35 (323.15 K), 4.66 ± 0.32 (333.15 K) and 4.17 ± 0.28 (343.15 K).

For the molecule `C1CCCCCC1` [cycloheptane] + CCn1cc[n+](C)c1.CO[PH](=O)[O-], the activity coefficient (313.15 K) amounted to 98.8 ± 6.8, the activity coefficient (333.15 K) was found to be 180 ± 12, the activity coefficient (353.15 K) worked out at 303 ± 21 and the activity coefficient (373.15 K) is 438 ± 30.

On to `C1CCCCCC1` [cycloheptane] + CO[PH](=O)[O-].Cn1cc[n+](C)c1, for which the activity coefficient (313.15 K) stood at 250 ± 17.

On to `C1CCCCC1` [cyclohexane] + CCn1cc[n+](C)c1.CO[PH](=O)[O-], for which the activity coefficient was found to be 89 ± 6 (313.15 K) and 43.1 ± 3 (333.15 K).

`C1CCCCC1` [cyclohexane] + CO[PH](=O)[O-].Cn1cc[n+](C)c1: the activity coefficient (313.15 K) was 129 ± 9.

As to `CCCCCCCCCC` [decane] + CCn1cc[n+](C)c1.CO[PH](=O)[O-], the activity coefficient (313.15 K) is 882 ± 61, the activity coefficient (333.15 K) came out at 704 ± 48 and the activity coefficient (353.15 K) turned out to be 582 ± 40.

Regarding `CCCCCCCCCC` [decane] + CO[PH](=O)[O-].Cn1cc[n+](C)c1, the activity coefficient (313.15 K) amounted to 1220 ± 84 and the activity coefficient (323.15 K) is 1210 ± 84.

Turning to `ClCCl` [dichloromethane] + CCn1cc[n+](C)c1.CO[PH](=O)[O-], the activity coefficient (313.15 K) is 0.502 ± 0.038, the activity coefficient (333.15 K) came to 0.642 ± 0.044 and the activity coefficient (353.15 K) came to 0.798 ± 0.052.

For the molecule `ClCCl` [dichloromethane] + CO[PH](=O)[O-].Cn1cc[n+](C)c1, the activity coefficient reads like this: (313.15 K) 0.57 ± 0.04; (323.15 K) 0.65 ± 0.04; (333.15 K) 0.72 ± 0.05; (343.15 K) 0.77 ± 0.05.

As to `CCOCC` [diethyl ether] + CCn1cc[n+](C)c1.CO[PH](=O)[O-], the activity coefficient came out at 1.99 ± 0.14 (313.15 K), 2.43 ± 0.17 (333.15 K), 3.5 ± 0.24 (353.15 K) and 4.6 ± 0.31 (373.15 K).

On to `CCCCCCCCCCCC` [dodecane] + CCn1cc[n+](C)c1.CO[PH](=O)[O-], for which the activity coefficient (313.15 K) is 1740 ± 120, the activity coefficient (333.15 K) came out at 1540 ± 110, the activity coefficient (353.15 K) was 1300 ± 90 and the activity coefficient (373.15 K) was found to be 915 ± 63.

As for `CCCCCCCCCCCC` [dodecane] + CO[PH](=O)[O-].Cn1cc[n+](C)c1, the activity coefficient turned out to be 2350 ± 160 (313.15 K), 1920 ± 130 (323.15 K) and 1790 ± 120 (333.15 K).

For `CCO` [ethanol] + CCn1cc[n+](C)c1.CO[PH](=O)[O-], the activity coefficient was 0.148 ± 0.029 (333.15 K), 0.156 ± 0.029 (353.15 K) and 0.169 ± 0.029 (373.15 K).

As for `CCO` [ethanol] + CO[PH](=O)[O-].Cn1cc[n+](C)c1, for the setting “343.15 K”, the activity coefficient was 0.16 ± 0.03.

Turning to `CCc1ccccc1` [ethylbenzene] + CCn1cc[n+](C)c1.CO[PH](=O)[O-], the activity coefficient was 11.4 ± 0.8 (313.15 K), 11.6 ± 0.8 (333.15 K), 11.7 ± 0.8 (353.15 K) and 11.9 ± 0.8 (373.15 K).

With `CCc1ccccc1` [ethylbenzene] + CO[PH](=O)[O-].Cn1cc[n+](C)c1, the activity coefficient by setting is: (313.15 K) 22.7 ± 1.6; (323.15 K) 22.1 ± 1.5; (333.15 K) 21.7 ± 1.5; (343.15 K) 21.5 ± 1.5.

Turning to `C=O` [methanal] + CCn1cc[n+](C)c1.CO[PH](=O)[O-], the activity coefficient by setting is: (313.15 K) 0.059; (333.15 K) 0.084 ± 0.03; (353.15 K) 0.115 ± 0.03; (373.15 K) 0.151 ± 0.029.

Turning to `CO` [methanol] + CCn1cc[n+](C)c1.CO[PH](=O)[O-], the activity coefficient by setting is: (333.15 K) 0.072 ± 0.03; (353.15 K) 0.078 ± 0.03; (373.15 K) 0.088 ± 0.03.

As to `CO` [methanol] + CO[PH](=O)[O-].Cn1cc[n+](C)c1, the activity coefficient (343.15 K) was 0.07 ± 0.03.

In the case of `CC1CCCCC1` [methylcyclohexane] + CCn1cc[n+](C)c1.CO[PH](=O)[O-], the activity coefficient reads like this: (313.15 K) 211 ± 15; (333.15 K) 70.8 ± 4.9.

As to `CC1CCCCC1` [methylcyclohexane] + CO[PH](=O)[O-].Cn1cc[n+](C)c1, the activity coefficient (313.15 K) was 257 ± 18.

As for `CC1CCCC1` [methylcyclopentane] + CCn1cc[n+](C)c1.CO[PH](=O)[O-], the activity coefficient (313.15 K) was 76 ± 5.
